Reference: patent US20100160304A1, “AROMATIC SULFONE COMPOUND AS ALDOSTERONE RECEPTOR MODULATOR” (Dainippon Sumitomo Pharma Co., Ltd, priority 2005, published 2010)

What follows are molecules tested on decrease of Na/K ratio in urine induced with aldosterone (assay: Antagonistic action (in vivo antagonist activity) against decrease of Na/K ratio in urine induced with aldosterone, adrenalectomized rat). Conditions: oral 10 and 30 mg/kg, 30 minutes before subcutaneous aldosterone, urine collection 4 hours (FIG. 1).
Method: After anesthetizing a rat by administering 50 mg/kg of sodium pentobarbital in its abdominal cavity and disinfecting its skin with the Isodine diluted solution, the rat was incised. After adrenalectomy and confirming the hemostasis, the muscular layer and skin were sutured in this order and then the sutured part was disinfected with the Isodine diluted solution. After breeding 3 days or more, a rat showing good progress was subjected to the following test.
It was fasted from the day preceding an examination, put into a metabolic cage at the day of the examination, and then subjected to a urine collection for 4 hours. When a substance to be tested was administered orally, it was administered in an amount of 5 ml/kg with 0.5% methylcellulose as a solvent. The aldosterone was dissolved with 1% ethanol/physiological saline and administered subcutaneously. The substance to be tested was administered 30 minutes before administering aldosterone. In order to stabilize and sufficiently secure the amount of the urine, physiological saline was administered orally in an amount of 20 ml/kg at the time of administering aldosterone. The colleted urine, after measuring its volume, was subjected to a measurement of electrolyte (sodium: Na and potassium: K) concentration in the urine with a biochemistry autoanalyzer (manufactured by Beckman, Synchron CX3 system Delta).
For `CC1(C)OC(=S)Nc2ccc(NS(=O)(=O)c3cccs3)cc21` [Example 24, N-(4,4-Dimethyl-2-thioxo-1,4-dihydro-2H-3,1-benzoxazin-6-yl)thiophene-2-sulfonamide], the “inhibition of the decrease of the urine Na/K ratio induced with aldosterone” value was “dose-dependently inhibited the decrease of the urine Na/K ratio”.

The molecules below were run against T1, aldosterone receptor MR (Rattus norvegicus, UniProt P22199) (assay: Aldosterone receptor binding assay ([3H]aldosterone, soluble fraction of rat kidney)). Conditions: [3H]aldosterone 2 nM, 2 μM RU-486, 4° C. about 18 hours.
T1 construct: the resultant supernatant was being a soluble fraction of the kidney; from tissue; host or cells: kidney of adrenalectomized rat, 105,000 G supernatant (soluble fraction)
T1 sequence (P22199 1-981): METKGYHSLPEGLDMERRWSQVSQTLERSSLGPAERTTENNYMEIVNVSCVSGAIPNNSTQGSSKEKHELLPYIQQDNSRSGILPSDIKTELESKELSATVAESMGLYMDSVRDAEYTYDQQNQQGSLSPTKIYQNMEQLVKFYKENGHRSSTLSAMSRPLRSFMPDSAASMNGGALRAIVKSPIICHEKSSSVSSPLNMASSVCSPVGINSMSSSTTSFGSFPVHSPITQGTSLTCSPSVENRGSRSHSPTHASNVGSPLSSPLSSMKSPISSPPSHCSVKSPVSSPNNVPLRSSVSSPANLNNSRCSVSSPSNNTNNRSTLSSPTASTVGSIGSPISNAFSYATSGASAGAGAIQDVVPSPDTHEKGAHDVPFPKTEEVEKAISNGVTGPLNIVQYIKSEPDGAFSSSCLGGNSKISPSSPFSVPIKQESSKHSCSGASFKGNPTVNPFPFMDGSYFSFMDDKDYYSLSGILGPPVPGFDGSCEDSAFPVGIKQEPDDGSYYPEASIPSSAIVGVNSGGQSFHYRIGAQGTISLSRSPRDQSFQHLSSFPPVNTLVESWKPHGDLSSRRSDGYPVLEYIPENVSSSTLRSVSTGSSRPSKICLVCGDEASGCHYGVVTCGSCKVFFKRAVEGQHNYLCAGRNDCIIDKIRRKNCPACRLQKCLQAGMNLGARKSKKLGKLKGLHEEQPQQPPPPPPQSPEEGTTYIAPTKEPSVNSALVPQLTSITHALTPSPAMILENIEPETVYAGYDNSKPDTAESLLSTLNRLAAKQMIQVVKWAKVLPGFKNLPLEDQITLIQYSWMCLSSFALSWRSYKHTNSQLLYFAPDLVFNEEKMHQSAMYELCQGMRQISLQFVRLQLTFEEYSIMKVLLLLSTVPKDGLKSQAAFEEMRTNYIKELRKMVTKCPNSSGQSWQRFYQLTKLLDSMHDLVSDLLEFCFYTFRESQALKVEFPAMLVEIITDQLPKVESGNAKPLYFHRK
Method: Flank incision (both sides) was subjected to a rat to adrenalectomize. After suturing the rat's incised parts, the rat was again returned to a breeding cage and bred for a duration of 3 to 5 days to collect a kidney from the rat; the collected kidney was homogenized with 0.1 M Tris-HCl, 0.25M sucrose, 0.1M Na2MoO4, 2 mM DTT buffer solution (pH 7.4), the resultant solution was subjected to centrifugal separation at 105,000 G for 30 minutes, and the resultant supernatant was being a soluble fraction of the kidney.
Thereafter, the reactant solution was added with 50 μL of 5% dextran coated charcoal and mixed, and then centrifugated at 3,000 G for 5 minutes. Subsequently, 100 μL of the supernatant was collected and mixed with 3.5 mL of liquid scintillator ACS-II (Amersham) to measure a radioactivity with a liquid scintillation counter (manufactured by Packard, Tri Carb 2700TR). A non-specific binding was determined by adding 2 μM of aldosterone to the reactant solution.
Binding inhibiting rate (%)=10−[(B−N)/(B0−N)]×100
B: Binding amount of the marker ligand in the co-presence of the tested substance and marker ligand,
B0: Binding amount of the marker ligand in the absence of the tested substance, and
N: Binding amount of the marker ligand in the presence of excess aldosterone (2 μM).
`CC1(C)OC(=S)Nc2ccc(NS(=O)(=O)c3cccs3)cc21` [Example 24, N-(4,4-Dimethyl-2-thioxo-1,4-dihydro-2H-3,1-benzoxazin-6-yl)thiophene-2-sulfonamide] was tested, and the IC50 was 13 nM. Work on `CC1=CC(C)(C)Nc2ccc(NS(=O)(=O)c3cccnc3)cc21` [Example 73, N-(2,2,4-Trimethyl-1,2-dihydroquinolin-6-yl)pyridine-3-sulfonamide] yielded an IC50 of 210 nM. For `CC1=CC(C)(C)Nc2ccc(NS(=O)(=O)c3ccsc3)cc21` [Example 74, N-(2,2,4-Trimethyl-1,2-dihydroquinolin-6-yl)thiophene-3-sulfonamide], the IC50 was 120 nM. With `CC1=CC(C)(C)Nc2ccc(NS(=O)(=O)c3cc4ccccc4s3)cc21` [Example 75, N-(2,2,4-Trimethyl-1,2-dihydroquinolin-6-yl)-1-benzothiophene-2-sulfonamide] the IC50 was 390 nM. `CC1=CC(C)(C)Nc2ccc(NS(=O)(=O)c3ccccc3C)cc21` [Example 78, 2-Methyl-N-(2,2,4-trimethyl-1,2-dihydroquinolin-6-yl)benzenesulfonamide] showed an IC50 of 900 nM. For `CC1=CC(C)(C)Nc2cc(C)c(NS(=O)(=O)c3ccc(C)cc3)cc21` [Example 80, 4-Methyl-N-(2,2,4,7-tetramethyl-1,2-dihydroquinolin-6-yl)benzenesulfonamide], the IC50 was 1300 nM. `CC1=CC(C)(C)Nc2ccc(N(C)S(=O)(=O)c3ccc(C)cc3)cc21` [Example 81, N,4-Dimethyl-N-(2,2,4-trimethyl-1,2-dihydroquinolin-6-yl)benzenesulfonamide] was tested, and the IC50 was 500 nM. Molecule `CC1=CC(C)(C)Nc2ccc(N(C)S(=O)(=O)c3cccs3)cc21` [Example 85, N-Methyl-N-(2,2,4-trimethyl-1,2-dihydroquinolin-6-yl)thiophene-2-sulfonamide] has an IC50 of 150 nM. With `CC(=O)N(c1ccc2c(c1)C(C)=CC(C)(C)N2)S(=O)(=O)c1ccc(C)cc1` [Example 86, N-[(4-Methylphenyl)sulfonyl]-N-(2,2,4-trimethyl-1,2-dihydroquinolin-6-yl)acetamide] the IC50 was 270 nM. For `CC(=O)N(c1ccc2c(c1)C(C)=CC(C)(C)N2)S(=O)(=O)c1ccccc1` [Example 87, N-(Phenylsulfonyl)-N-(2,2,4-trimethyl-1,2-dihydroquinolin-6-yl)acetamide], the IC50 was 500 nM. `CC(=O)N(c1ccc2c(c1)C(C)=CC(C)(C)N2)S(=O)(=O)c1ccc(Cl)cc1` [Example 88, N-[(4-Chlorophenyl)sulfonyl]-N-(2,2,4-trimethyl-1,2-dihydroquinolin-6-yl) acetamide] showed an IC50 of 300 nM. `CC(=O)N(c1ccc2c(c1)C(C)=CC(C)(C)N2)S(=O)(=O)c1ccc(Cl)s1` [Example 89, N-[(5-Chloro-2-thienyl)sulfonyl]-N-(2,2,4-trimethyl-1,2-dihydroquinolin-6-yl)acetamide] showed an IC50 of 300 nM. Work on `COC(=O)C(=O)N(c1ccc2c(c1)C(C)=CC(C)(C)N2)S(=O)(=O)c1cccs1` [Example 91, Methyl Oxo[(2-thienylsulfonyl)-(2,2,4-trimethyl-1,2-dihydroquinolin-6-yl)amino]acetate] yielded an IC50 of 100 nM. In the case of `Cc1ccc(S(=O)(=O)Cc2ccc3c(c2)C(C)CC(C)(C)N3)cc1` (centres unmarked) [Example 96, 2,2,4-Trimethyl-6-{[(4-methylphenyl)sulfonyl]methyl}-1,2,3,4-tetrahydroquinoline], the IC50 is reported as 500 nM. In the case of `Cc1ccc(S(=O)(=O)Nc2ccc3c(c2)C(C)CC(C)(C)N3)cc1` (centres unmarked) [Example 97, 4-Methyl-N-(2,2,4-trimethyl-1,2,3,4-tetrahydroquinolin-6-yl)benzenesulfonamide], the IC50 is reported as 2200 nM. `CC1CC(C)(C)Nc2ccc(NS(=O)(=O)c3cccs3)cc21` (centres unmarked) [Example 98, N-(2,2,4-Trimethyl-1,2,3,4-tetrahydroquinolin-6-yl)thiophene-2-sulfonamide] was tested, and the IC50 was 94 nM. Work on `CC1CC(C)(C)Nc2ccc(NS(=O)(=O)c3ccc4ccccc4c3)cc21` (centres unmarked) [Example 99, N-(2,2,4-Trimethyl-1,2,3,4-tetrahydroquinolin-6-yl)naphthalene-2-sulfonamide] yielded an IC50 of 3900 nM. `Cc1ccc(S(=O)(=O)N(C)c2ccc3c(c2)C(C)CC(C)(C)N3)cc1` (centres unmarked) [Example 100, N,4-Dimethyl-N-(2,2,4-trimethyl-1,2,3,4-tetrahydroquinolin-6-yl)benzenesulfonamide] was tested, and the IC50 was 2100 nM. Molecule `CC(=O)N(c1ccc2c(c1)C(C)CC(C)(C)N2)S(=O)(=O)c1ccc(C)cc1` (centres unmarked) [Example 101, N-[(4-Methylphenyl)sulfonyl]-N-(2,2,4-trimethyl-1,2,3,4-tetrahydroquinolin-6-yl)acetamide] has an IC50 of 190 nM. With `Cc1ccc(S(=O)(=O)Cc2ccc3c(c2)CCC(C(F)(F)F)N3)cc1` (centres unmarked) [Example 104, 6-{[(4-Methylphenyl)sulfonyl]methyl}-2-(trifluoromethyl)-1,2,3,4-tetrahydroquinoline] the IC50 was 1800 nM. `Cc1ccc(S(=O)(=O)Oc2ccc(NS(C)(=O)=O)cc2)cc1` [Example 105, 4-[(Methylsulfonyl)amino]phenyl 4-methylbenzenesulfonate] was tested, and the IC50 was 6600 nM. `CCCCS(=O)(=O)Nc1ccc(OS(=O)(=O)c2ccc(C)cc2)cc1` [Example 106, 4-[(Butylsulfonyl)amino]phenyl 4-methylbenzenesulfonate] showed an IC50 of 8000 nM. `Cc1ccc(S(=O)(=O)Oc2ccc(NS(C)(=O)=O)cc2C)cc1` [Example 109, 2-Methyl-4-[(methylsulfonyl)amino]phenyl 4-methylbenzenesulfonate] gave an IC50 of 16000 nM. Molecule `Cc1ccc(S(=O)(=O)Oc2ccc(NS(C)(=O)=O)cc2F)cc1` [Example 110, 2-Fluoro-4-[(methylsulfonyl)amino]phenyl 4-methylbenzenesulfonate] has an IC50 of 9400 nM. In the case of `Cc1ccc(S(=O)(=O)Cc2ccc(NS(C)(=O)=O)cc2)cc1` [Example 112, N-(4-{[(4-Methylphenyl)sulfonyl]methyl}phenyl)methanesulfonamide], the IC50 is reported as 5400 nM.
